Test results as given in patent US9832994B2, “Thymol and totarol antibacterial composition” (COLGATE-PALMOLIVE COMPANY, priority 2011, dated 2017).

What was measured:
E. coli = experiment: Minimum Inhibition Concentration (MIC) and Fractional Inhibitory Concentration (FIC) against E. coli; assay type: cell-based; conditions: Escherichia coli, single active, tryptic soy broth, 96 well plate, 16-24 hours at 37° C
Procedure: (§1) Minimum Inhibition Concentration (MIC) Serial dilutions of the active are combined with tryptic soy broth and 0.1 optical density of bacteria in a 96 well plate. The optical density of the mixture is measured after 16-24 hours at 37° C. An increase in optical density represents bacterial growth. The plate is analyzed to determine the minimum concentration needed to inhibit growth of bacteria. Numbers are reported in ppm. The MIC values are determined for thymol and totarol against E. Coli and S. aureus. The MIC dose response assay is conducted just as the MIC, however, one active's concentration is kept constant and the other active's concentration follows a two-fold serial dilution. Fractional Inhibition Concentration (FIC) The MIC values are also determined for thymol in the presence of totarol to determine the Fractional Inhibitory Concentration (FIC). This calculation accounts for the fractional activity of thymol and totarol within a MIC test. [formula] such that: [table]

S. aureus = experiment: Minimum Inhibition Concentration (MIC) and Fractional Inhibitory Concentration (FIC) against S. aureus; assay type: cell-based; conditions: Staphylococcus aureus, single active, tryptic soy broth, 96 well plate, 16-24 hours at 37° C
Procedure: as §1

| MIC (E. coli) [µg/mL] | MIC (S. aureus) [µg/mL] | Compound |
| --- | --- | --- |
| 125 |  | Cc1ccc(C(C)C)c(O)c1 [Thymol, thymol] |
| 125 | 31.2 | CC(C)c1c(O)ccc2c1CC[C@H]1C(C)(C)CCC[C@]21C [Totarol, totarol] |
